From the supplement of paper PMC10307832

What was measured:
Test in all cases: relative viability (nuclei count vs DMSO), 5 days (fraction); higher = more cells survive
[1] = compound: COc1cc2nc(N3CCCN(C)CC3)nc(NC3CCN(Cc4ccccc4)CC3)c2cc1OC + CC1(C)CCC(c2ccc(Cl)cc2)=C(CN2CCN(c3ccc(C(=O)NS(=O)(=O)c4ccc(N[C@H](CCN5CCOCC5)CSc5ccccc5)c(S(=O)(=O)C(F)(F)F)c4)cc3)CC2)C1 [Navitoclax] (partner 0.5 µM)
In short: (§1)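 Relative viability equals treated-well nuclei counts divided by vehicle-well nuclei counts. Counts came from 4× images of lung cancer cell lines grown in 1536-well plates for 5 days after pin-tool dosing on the day after seeding. Dosing used one drug alone or a fixed anchor-drug dose plus five library-drug doses (not always all listed) in √10 steps, and values are medians of duplicate plates.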

[2] = compound: COc1cc2nc(N3CCCN(C)CC3)nc(NC3CCN(Cc4ccccc4)CC3)c2cc1OC + COc1cc2c(Oc3ccc(NC(=O)C4(C(=O)Nc5ccc(F)cc5)CC4)cc3F)ccnc2cc1OCCCN1CCOCC1 [Foretinib] (partner 0.25 µM)
In short: as §1

AZD6482 = compound: Cc1cc([C@@H](C)Nc2ccccc2C(=O)O)c2nc(N3CCOCC3)cc(=O)n2c1 [AZD6482]
In short: (§2)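 Hoechst staining, done together with fixation and permeabilisation, marked nuclei for 4× imaging and MetaXpress counting. This followed 5 days without medium change after lung cancer cell lines, kept overnight at 37 °C in 1536-well plates, were pinned with five library-drug doses (not always all listed) spaced by √10 on vehicle-anchored plates. Viability is the ratio of treated-well to vehicle-well nuclei, expressed as a median across plates. Plates passed only at control CV below 25% with at least one doubling.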

[3] = compound: COc1cc2nc(N3CCCN(C)CC3)nc(NC3CCN(Cc4ccccc4)CC3)c2cc1OC
In short: as §2

Cell Line | relative viability ([1]; first compound 0.2 µM) | relative viability ([1]; first compound 0.6325 µM) | relative viability ([1]; first compound 2 µM) | relative viability ([1]; first compound 6.325 µM) | relative viability ([2]; first compound 0.2 µM) | relative viability ([2]; first compound 0.6325 µM) | relative viability ([2]; first compound 2 µM) | relative viability ([2]; first compound 6.325 µM) | relative viability (AZD6482; 0.08 µM) | relative viability (AZD6482; 0.253 µM) | relative viability (AZD6482; 0.8 µM) | relative viability (AZD6482; 8 µM) | relative viability ([3]; 0.2 µM) | relative viability ([3]; 0.6325 µM) | relative viability ([3]; 2 µM) | relative viability ([3]; 6.325 µM) | relative viability (AZD6482; 2.53 µM)
IA-LM | 0.761 | 0.689 | 1.01 | 0.64 | 1.13 | 0.807 | 1.34 | 1.16 | 0.979 | 0.99 | 1.03 | 0.842 | 0.941 | 0.865 | 1.08 | 0.862 | –
NCI-H647 | 1.07 | 1.18 | 1.32 | 0.964 | 1.15 | 0.952 | 1.35 | 0.918 | 0.797 | 0.564 | 0.859 | 0.646 | 0.872 | 1.06 | 1.04 | 0.764 | 0.513
SK-MES-1 | 1.14 | 1.24 | 1.36 | 0.999 | 0.842 | 0.926 | 0.97 | 0.865 | 0.794 | 0.946 | 0.709 | 0.444 | 1.01 | 1.01 | 1.03 | 0.791 | 0.405
NCI-H2170 | 0.707 | 0.577 | 0.494 | 0.582 | 0.982 | 0.955 | 0.996 | 1.01 | 0.909 | 0.897 | 0.944 | 0.927 | 1.02 | 0.963 | 1 | 0.975 | 0.851
NCI-H2085 | 1.03 | 1.12 | 1.27 | 0.981 | 0.917 | 0.926 | 0.965 | 0.944 | 0.801 | 0.675 | 0.588 | 0.384 | 1.01 | 1.02 | 0.992 | 0.965 | 0.4
SW 1573 | 0.941 | 0.868 | 1.08 | 0.755 | 0.844 | 0.974 | 0.941 | 0.862 | 0.916 | 0.908 | 0.818 | 0.674 | 0.906 | 0.983 | 1.02 | 0.651 | 0.677
NCI-H727 | 0.495 | 0.517 | 0.381 | 0.225 | 0.771 | 1.04 | 0.889 | 0.832 | 0.877 | 0.789 | 0.945 | 0.833 | 0.834 | 0.867 | 0.826 | 0.783 | 0.58
NCI-H441 | 0.591 | – | 0.831 | 0.277 | 0.957 | 0.954 | 0.928 | 1.02 | 1.01 | 0.896 | 1.22 | 1.02 | 0.985 | 0.825 | 1.03 | 0.81 | –
LOU-NH91 | 0.717 | 0.688 | 0.578 | 0.742 | 0.933 | 0.996 | 0.866 | 0.993 | 0.852 | 0.918 | 0.959 | 0.744 | 0.96 | 1.13 | 0.838 | 0.983 | 0.61
NCI-H3122 | 1.01 | 1.02 | 1.05 | 0.992 | 0.915 | 1.02 | 0.955 | 0.968 | 1 | 1.02 | 1.01 | 0.915 | 0.932 | 0.959 | 1.04 | 0.998 | 0.756
NCI-H460 | 1.16 | 1.13 | 1.17 | 0.754 | 0.922 | 0.952 | 1.03 | 0.993 | 0.963 | 0.969 | 1.01 | 0.822 | 0.997 | 1.01 | 0.992 | 0.978 | 0.846
NCI-H1793 | 0.49 | 0.489 | 0.492 | 0.457 | 0.591 | 0.882 | 0.848 | 0.701 | 0.774 | 0.5 | 0.756 | 0.499 | 0.86 | 0.959 | 0.863 | 0.819 | 0.386
